From US20220107328A1, “METHODS OF TREATING LIVER DISEASES” (Camp4 Therapeutics Corporation, priority 2018, published 2022)

What was measured:
[1] = tested on: triglyceride content in HepG2 cells; test: AdipoRed staining and triglyceride quantification of lipid droplet fraction in HepG2 cells; format: cell-based; conditions: 72 hours; for TG (nmol/ug protein) (±Standard Deviation): lipid droplet fraction
Protocol: HepG2 cells were treated with OSI-027 as described in Example 1. DMSO was used as a control. After treatment, the cells were stained with the AdipoRedTM Assay Reagent (cat #PT-7009) according to the manufacturer's instructions. Parallel treatment samples were processed for triglyceride quantification. For triglyceride quantification, HepG2 cells were treated with OSI-027 for 72 hours. Cells were collected and the lipid droplet (LD) fraction of the cell lysate enriched using the lipid droplet isolation kit (Cell Biolabs Inc., #[…]) per the manufacturer's instructions. The triglyceride content of the LD-enriched fraction measured using a Triglyceride Quantification Kit (Biovision Inc., #K622) per manufacturer's protocol, with a fluorimetric read-out.

[2] = tested on: PNPLA3 mRNA in mouse liver; test: High sucrose diet mouse pharmacology study, liver PNPLA3 mRNA; format: in vivo; conditions: for PNPLA3 liver mRNA after exclusion of outliers and re-analysis (in words) / PNPLA3 liver mRNA, dose titration (in words): 6 hours post dose; for PNPLA3 liver mRNA, dose titration (in words): decreasing doses QD oral gavage four days
Protocol: LY2157299 was also tested in vivo. C57BL/6J mice were divided into […]. Each group had 6 male mice. […] Groups 1-10 received food throughout the dosing period. […] Eyes were also collected for groups 11-14.
(§1) Mouse liver tissues were pulverized in liquid nitrogen and aliquoted into small microtubes. TRIzol (Invitrogen Cat #15596026) was added to the tubes to facilitate cell lysis from tissue samples. The TRIzol solution containing the disrupted tissue was then centrifuged and the supernatant phase was collected. Total RNA was extracted from the supernatant using Qiagen RNA Extraction Kit (Qiagen Cat#74182) and the PNPLA3 mRNA levels were analyzed using qRT-PCR.
C57BL/6J mice were divided into 14 groups. Each group had 6 male mice. All mice were given an HS diet at night on a synchronized schedule. […] The animals received no food at night on Day 10.
as §1, with “Cat #74182)” for “Cat#74182)”, “target” for “PNPLA3”, “qRT-PCR. mRNA levels for PNPLA3, PNPLA5, COL1A1, and PCSK9 were assessed.” for “qRT-PCR.”

[3] = tested on: lipid content in primary human hepatocytes (M/M homozygous); test: Lipid (Oil Red O) staining of primary human hepatocytes; format: cell-based; conditions: 3.3 μM
Excerpt: DMSO and chloroquine were used as controls. After treatment, the cells were fixed and stained with ORO using the BioVision Lipid (Oil Red O) Staining Kit (cat #K580-24) according to the manufacturer's instructions. Parallel treatment samples were processed for qRT-PCR as previously described. Representative light microscopy images of each treatment are shown in FIG. 14A and a quantification of the PNPLA3 mRNA levels are shown in FIG. 14B.

[4] = tested on: phosphorylated AKT (pAKT/AKT); test: Western blot of phosphorylated AKT in human hepatocytes; format: cell-based; conditions: 3 μM; for phosphorylated AKT (pAKT/AKT) over time (in words): 35 min to 20 hrs, relative to DMSO control; for pAKT (473)/AKT: human hepatocytes, mTORC2 pathway, time point not stated
Protocol: Levels of phosphorylated S6, AKT, and NDRG1 proteins were determined as compared to total S6, AKT, and NDRG1 protein. PNPLA3 mRNA expression was quantified and normalized to housekeeping gene GUSB.

[5] = tested on: PCSK9 mRNA; test: qRT-PCR of PCSK9 mRNA in primary hepatocytes; format: cell-based, human; conditions: donor 4178, 3 μM, relative to GUSB
[6] = Serum glucose quantification in mice; format: in vivo, mouse
Protocol: Mouse 7-8 week old C57BL/6J mice were divided into 9 groups. Each group had 8 male mice. All mice were given a high sucrose diet for 10 days (Diet no. 901683; 74% kCal from sucrose. […] Food was removed at the start of the light cycle, about 7 am, except on the last day, when food was left in the cage until termination. On day 7-10, mice were administered daily (QD) via oral gavage, candidate compounds at a volume of 10 mL/kg with the compound in vehicle solution (0.5% methylcellulose/0.2% tween20). Vehicle alone was administered to control group 1. OSI-027 was administered at 25 mg/kg, 10 mg/kg, 5 mg/kg, and 2 mg/kg to groups 2-5. […] The treatment was administered in the evening on Days 7 to 10 and in the morning on Day 11, starting at 5 am. On Day 11, mice were terminated 4 hours post last dose at 9 am, for a total of 5 doses of each candidate compound. Mice were weighed 2×/week until Day 11. Liver and blood samples were collected after mice were terminated. Liver samples were process for mRNA extraction as previously described. Blood samples were processed for serum collection. […] Serum glucose levels were measured in a single-reagent coupled-enzyme assay, against a glucose standard curve, colorimetrically. The glucose assay reagent was prepared as follows: one capsule of glucose oxidase/peroxidase (Sigma, cat #G3660-1CAP) was dissolved in 19.6 ml of deionized water. Separately, one vial of O-Dianisidine reagent (Sigma, cat #D2679) was dissolved in 0.5 ml of deionized water, 0.4 ml of the O-Dianisidine reagent was added into the enzyme mix to make 20 ml of 2× Glucose assay reagent. The glucose assay reagent was made fresh prior to running the assay. […] A no glucose control was included as a reagent blank. […] The reaction was incubated at 37° C. for 30 min. 100 μl of 2N sulfuric acid was then added to quench the reaction. The color developed was read spectrophotometrically at 540 nm. The amount of glucose in the samples were determined based on the parameters of the linear fit obtained from the glucose standard curve.

[7] = tested on: COL1A1 mRNA; test: qRT-PCR of COL1A1 mRNA in human primary hepatic stellate cells; format: cell-based; conditions: 3 μM, relative to GAPDH
[8] = tested on: mTOR signaling of phospho-4E-BP1; conditions: cited from earlier work
[9] = HS diet mice, QD oral gavage four days, OSI-027 50 mg/kg, PF-04691502 10 mg/kg

| Structure (SMILES) | TG (nmol/ug protein) (±Standard Deviation) ([1]; 0.33 μM) | TG (nmol/ug protein) (±Standard Deviation) ([1]; 1 μM) | triglyceride content (in words) [1] | PNPLA3 liver mRNA after exclusion of outliers and re-analysis (in words) [2] | PNPLA3 liver mRNA, 6 hours post-dose (in words) [2, 9] | PNPLA3 liver mRNA, 12 hours post-dose (in words) ([2]; HS diet mice, QD oral gavage four days, OSI-027 50 mg/kg, PF-04691502 10 mg/kg, LY2157299 75 mg/kg) | PNPLA3 liver mRNA, dose titration (in words) ([2]; HS diet mice) | lipid content (in words) [3] | phosphorylated AKT (pAKT/AKT) over time (in words) [4] | pAKT (473)/AKT [4] | Primary Hepatocytes 4178 PCSK9 (fold change in mRNA expression) [5] | serum glucose (in words) ([6]; 10 mg/kg, 5 mg/kg, and 2 mg/kg) | serum glucose (in words) ([6]; 25 mg/kg) | Primary Stellate cells COL1A1 (fold change in mRNA expression) [7] | IC50 [8] [µM] | serum glucose (in words) ([6]; 1 mg/kg) |
| --- | --- | --- | --- | --- | --- | --- | --- | --- | --- | --- | --- | --- | --- | --- | --- | --- |
| COc1cccc2cc(-c3nc([C@H]4CC[C@H](C(=O)O)CC4)n4ncnc(N)c34)[nH]c12 [OSI-027] | 0.24 ± 0.02828 | 0.235 ± 0.03535 | reduced triglyceride content in HepG2 cells | more significant dose dependent decrease in PNPLA3 mRNA | reduced PNPLA3 mRNA | reduced PNPLA3 mRNA | dose dependent decrease | reduced lipid content in primary human hepatocytes | decreased at 4.5 hours | 0.06 | 0.69 | no significant changes in serum glucose or serum insulin levels | significant increased | 0.51 | 1 | – |
| COc1ccc(-c2cc3c(C)nc(N)nc3n([C@H]3CC[C@H](OCCO)CC3)c2=O)cn1 [PF-04691502] | – | – | – | greater decrease in PNPLA3 mRNA | reduced PNPLA3 mRNA at 6 hours post-dose | – | dose dependent decrease in PNPLA3 and PNPLA5 mRNA | reduced lipid content in primary human hepatocytes | decreased at 20 hours | 0.06 | – | significant serum glucose and serum insulin increases | – | – | – | moderate increased insulin and glucose levels |
